Structures are written as SMILES. Where “and” joins values, the source holds several entries; their conditions need not be identical. Identical values can stand only once.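 Growth conditions: 96-well plates. Treatment: test compound, 48 hours, 5 concentrations. Analysis: linear interpolation between bracketing concentrations; unreached endpoints set to highest concentration. GI50 = concentration required for 50% inhibition of growth. TGI marks complete inhibition of growth.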

Test systems include HCC-2998 colon; HOP-62 NSCLC; HOP-92 NSCLC; KM12 colon; MDA-MB-231 breast; PC-3 prostate; SF-295 CNS; SK-MEL-2 melanoma; SR leukemia; A498 renal.
What all share (assay): NCI tumour cell line growth inhibition, 48 h

Turning to `CCOC(=O)/C=C/C(C(=O)/C=C/c1ccc(O)c(OC)c1)=C(O)\C=C\c1ccc(O)c(OC)c1`, the GI50 in the assay on HCC-2998 colon is 1.77 µM; with HOP-62 NSCLC, 3.19 µM; in the assay with HOP-92 NSCLC, 10.5 µM; with KM12 colon it was 3.96 µM; in the assay on MDA-MB-231 breast, 2 µM; in the assay on PC-3 prostate, 12.8 µM. In addition, the GI50 in the assay with SF-295 CNS is 14.6 µM; with SK-MEL-2 melanoma, 5.17 µM; in the assay on SR leukemia, 11 µM. Also, the TGI in the assay on HCC-2998 colon is 3.74 µM; in the assay on HOP-62 NSCLC, 16.1 µM; in the assay on HOP-92 NSCLC it was 30.1 µM; in the assay on KM12 colon, greater than 100 µM; with MDA-MB-231 breast, 8.55 µM; with PC-3 prostate, greater than 100 µM. The TGI was 47 µM in the assay on SF-295 CNS, 26.2 µM in the assay with SK-MEL-2 melanoma and greater than 100 µM in the assay with SR leukemia.

Turning to `O=C(O)c1cc2cc(OCc3ccccc3)c(OCc3ccccc3)cc2[nH]1`, the GI50 with HCC-2998 colon is 18.7 µM; with HOP-62 NSCLC, 16.4 µM; with KM12 colon, 19.3 µM; with MDA-MB-231 breast it was 28.2 µM; in the assay on PC-3 prostate, 23 µM; in the assay on SF-295 CNS, 17.6 µM. For the same molecule, the results for the GI50 in the assay on SK-MEL-2 melanoma and with SR leukemia were 21.4 µM and 21.8 µM, respectively. Besides, the TGI was 34.7 µM with HCC-2998 colon; 52.4 µM with HOP-62 NSCLC; 36.2 µM in the assay on KM12 colon; 79 µM with MDA-MB-231 breast; 68.5 µM in the assay on PC-3 prostate; 40.1 µM in the assay with SF-295 CNS. Also, the TGI is 44.7 µM in the assay with SK-MEL-2 melanoma and greater than 100 µM with SR leukemia.

For the molecule `CCCCCCCCCCCCSC(=N)N`, the GI50 in the assay with A498 renal is 15.3 µM; in the assay on HCC-2998 colon it was 2.31 µM; in the assay with HOP-62 NSCLC, 10.7 µM; with KM12 colon, 3.33 µM; in the assay on MDA-MB-231 breast, 2.03 µM; in the assay on PC-3 prostate, 9.13 µM. Also, the GI50 was 2.35 µM in the assay with SF-295 CNS, 19.5 µM in the assay on SK-MEL-2 melanoma and 1.79 µM in the assay on SR leukemia. Moreover, the TGI in the assay on A498 renal stood at 31.4 µM; with HCC-2998 colon it was 5.62 µM; in the assay on HOP-62 NSCLC, 28.9 µM; with KM12 colon, 11.3 µM; with MDA-MB-231 breast, 8.28 µM; in the assay with PC-3 prostate, 23 µM. The TGI in the assay with SF-295 CNS is 5.55 µM; in the assay on SK-MEL-2 melanoma, 36.2 µM; with SR leukemia, 4.4 µM.

On to `COc1ccc(-c2ccc(-c3ccc(-c4ccc(C(=N)N)cc4)s3)s2)cc1OC`, for which the GI50 was 11 µM in the assay with A498 renal; 3.26 µM in the assay with HOP-62 NSCLC; 2.18 µM in the assay with HOP-92 NSCLC; 0.749 µM with KM12 colon; 2.78 µM with PC-3 prostate; 21.2 µM with SF-295 CNS. Besides, the GI50 in the assay on SK-MEL-2 melanoma is 19.7 µM; with SR leukemia it was 1.74 µM. The TGI came out at 27.8 µM in the assay with A498 renal; 17.9 µM with HOP-62 NSCLC; 6.1 µM with HOP-92 NSCLC; 2.16 µM with KM12 colon; 9.39 µM in the assay on PC-3 prostate; 45.5 µM with SF-295 CNS. Besides, the TGI in the assay on SK-MEL-2 melanoma turned out to be 43.5 µM; with SR leukemia it was 6 µM.

On to `O=C1C(=O)N(c2ccc(Cl)cc2Cl)C(=O)C(=O)C1c1nc2ccccc2o1`, for which the TGI in the assay on A498 renal, in the assay on HCC-2998 colon, in the assay with HOP-62 NSCLC, in the assay with HOP-92 NSCLC, with KM12 colon and in the assay on SF-295 CNS was greater than 100 µM in each case. Further, the TGI with SK-MEL-2 melanoma and with SR leukemia was greater than 100 µM throughout.

Regarding `CO[C@@H]1/C=C(C)/C=C/[C@@H](C)/C=C(\C)C(=O)OC(/C(C)=C/C=C(\C)CNC(=O)[C@H](CO)NC=O)[C@@H](C)/C=C/C=C/[C@H](OC)CC/C=C(C)/C=C/C1` (some centres not stated), the GI50 in the assay with HOP-62 NSCLC was less than 0.005 µM; with HOP-92 NSCLC, less than 0.005 µM; in the assay with KM12 colon, less than 0.005 µM; with MDA-MB-231 breast it was 0.292 µM; in the assay on PC-3 prostate, less than 0.005 µM; in the assay on SF-295 CNS, less than 0.005 µM. For the same molecule, the GI50 in the assay on SK-MEL-2 melanoma and in the assay on SR leukemia was less than 0.005 µM each time. Moreover, the TGI in the assay on HOP-62 NSCLC was less than 0.005 µM; with HOP-92 NSCLC, 0.0852 µM; in the assay on KM12 colon, 8 µM; in the assay on PC-3 prostate, 6.91 µM; in the assay on SF-295 CNS, 0.00951 µM; with SR leukemia it was greater than 11.9 µM.

Turning to `COc1cc2c[n+](C)c3c4ccccc4ccc3c2cc1OC` (tested in a mixture with another compound), the GI50 in the assay with HCC-2998 colon is 6.36 µM; with HOP-62 NSCLC it was 6.41 µM; in the assay on HOP-92 NSCLC, 5.25 µM; with KM12 colon it was 0.544 µM; with MDA-MB-231 breast, 10.3 µM; with SK-MEL-2 melanoma, 4.25 µM. Besides, in the assay on SR leukemia, the GI50 was 0.818 µM. Also, the TGI with HCC-2998 colon was 21.3 µM; in the assay on HOP-62 NSCLC, 49.7 µM; with HOP-92 NSCLC, 28.6 µM; with KM12 colon it was 2.5 µM and 13.2 µM; with MDA-MB-231 breast, 9.2 µM and 25.6 µM; in the assay on PC-3 prostate, 20.1 µM. The TGI is 71.5 µM in the assay with SF-295 CNS and 21.8 µM with SK-MEL-2 melanoma.

Regarding `COc1cccc(/C=C/c2cnc3ccccc3n2)c1OC`, the TGI was greater than 100 µM with A498 renal; 64.9 µM with HOP-62 NSCLC; 88.2 µM with HOP-92 NSCLC; greater than 100 µM in the assay with KM12 colon; greater than 100 µM in the assay on MDA-MB-231 breast; greater than 100 µM in the assay on PC-3 prostate. For the same molecule, the TGI in the assay with SF-295 CNS was greater than 100 µM; in the assay on SK-MEL-2 melanoma, 98.5 µM; in the assay on SR leukemia it was greater than 100 µM.

On to `CN(C)C(=O)c1cc2cnc(Nc3ccc(-c4csc5c(=O)cc(N6CCOCC6)oc45)cc3)nc2n1C1CCCC1`, for which the GI50 in the assay with A498 renal was 0.0547 µM; with HCC-2998 colon, 0.219 µM; in the assay on HOP-62 NSCLC, 0.269 µM; with HOP-92 NSCLC, 0.0541 µM; in the assay with KM12 colon, 0.0414 µM; with PC-3 prostate, 0.22 µM. Besides, the GI50 with SF-295 CNS was 0.242 µM; in the assay on SK-MEL-2 melanoma, 0.236 µM; with SR leukemia it was 0.101 µM. The TGI with A498 renal was determined as 0.244 µM; with HCC-2998 colon, 1.2 µM; in the assay on HOP-62 NSCLC it was 1.67 µM; in the assay on HOP-92 NSCLC, 41.9 µM; in the assay on KM12 colon it was 0.682 µM; in the assay on PC-3 prostate, 1.47 µM. Moreover, the results for the TGI with SF-295 CNS, in the assay on SK-MEL-2 melanoma and with SR leukemia were 1.14 µM, 0.679 µM and greater than 80 µM, respectively.
